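Five compound concentrations were applied to cells in 96-well plates for 48 hours; endpoints were derived by simple linear interpolation of the resulting dose-response curve. GI50 = concentration required for 50% inhibition of growth. TGI denotes the concentration required for complete inhibition of growth.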
Columns and labels:
Experiment in all cases: NCI-60 cell line screen, 48 h
UACC-62 melanoma = system: UACC-62 melanoma
U251 CNS = system: U251 CNS
COLO 205 colon = system: COLO 205 colon
SN12C renal = system: SN12C renal
SK-OV-3 ovarian = system: SK-OV-3 ovarian
NCI-H226 lung = system: NCI-H226 lung
HL-60(TB) leukemia = system: HL-60(TB) leukemia
RPMI-8226 leukemia = system: RPMI-8226 leukemia
SF-268 CNS = system: SF-268 CNS
CAKI-1 renal = system: CAKI-1 renal
SK-MEL-2 melanoma = system: SK-MEL-2 melanoma
A498 renal = system: A498 renal
MALME-3M melanoma = system: MALME-3M melanoma
HOP-92 NSCLC = system: HOP-92 NSCLC
UACC-257 melanoma = system: UACC-257 melanoma
M14 melanoma = system: M14 melanoma
HS 578T breast = system: HS 578T breast
MOLT-4 leukemia = system: MOLT-4 leukemia
SF-295 CNS = system: SF-295 CNS
MCF7 breast = system: MCF7 breast
MDA-MB-231 breast = system: MDA-MB-231 breast
HT29 colon = system: HT29 colon
NCI-H460 lung = system: NCI-H460 lung
OVCAR-8 ovarian = system: OVCAR-8 ovarian
SK-MEL-28 melanoma = system: SK-MEL-28 melanoma
KM12 colon = system: KM12 colon
SR leukemia = system: SR leukemia
NCI-H522 lung = system: NCI-H522 lung
NCI/ADR-RES ovarian = system: NCI/ADR-RES ovarian
IGROV1 ovarian = system: IGROV1 ovarian
HCC-2998 colon = system: HCC-2998 colon
T-47D breast = system: T-47D breast
OVCAR-3 ovarian = system: OVCAR-3 ovarian
PC-3 prostate = system: PC-3 prostate
LOX IMVI melanoma = system: LOX IMVI melanoma
OVCAR-5 ovarian = system: OVCAR-5 ovarian
OVCAR-4 ovarian = system: OVCAR-4 ovarian
SW-620 colon = system: SW-620 colon
ACHN renal = system: ACHN renal
A549 NSCLC = system: A549 NSCLC
SNB-19 CNS = system: SNB-19 CNS
CCRF-CEM leukemia = system: CCRF-CEM leukemia
SNB-75 CNS = system: SNB-75 CNS
TK-10 renal = system: TK-10 renal
DU-145 prostate = system: DU-145 prostate
UO-31 renal = system: UO-31 renal
K-562 leukemia = system: K-562 leukemia
786-0 renal = system: 786-0 renal
HCT-15 colon = system: HCT-15 colon
NCI-H23 lung = system: NCI-H23 lung
SK-MEL-5 melanoma = system: SK-MEL-5 melanoma
HOP-62 NSCLC = system: HOP-62 NSCLC
HCT-116 colon = system: HCT-116 colon

With `Cc1ccc(NC(=O)c2sc3nc4c(cc3c2N)C(=O)CCC4)cc1C` the GI50 (UACC-62 melanoma) was 496 nM, the TGI (UACC-62 melanoma) was > 100000 nM and the GI50 (U251 CNS) was 765 nM. For the same compound, the TGI (U251 CNS) was > 56700 nM, the GI50 (COLO 205 colon) was 309 nM and the TGI (COLO 205 colon) was 936 nM. The GI50 (SN12C renal) was 797 nM, the TGI (SN12C renal) was > 100000 nM and the GI50 (SK-OV-3 ovarian) was 533 nM. The TGI (SK-OV-3 ovarian) was > 100000 nM, the GI50 (NCI-H226 lung) was 27300 nM and the TGI (NCI-H226 lung) was > 100000 nM. It also gave a GI50 (HL-60(TB) leukemia) of 360 nM, a TGI (HL-60(TB) leukemia) of 1720 nM and a GI50 (RPMI-8226 leukemia) of 1570 nM. For the same compound, the TGI (RPMI-8226 leukemia) was > 30400 nM, the GI50 (SF-268 CNS) was 4470 nM and the TGI (SF-268 CNS) was > 100000 nM. For the same compound, the GI50 (CAKI-1 renal) was 661 nM, the TGI (CAKI-1 renal) was > 100000 nM and the GI50 (SK-MEL-2 melanoma) was 464 nM. For the same compound, the TGI (SK-MEL-2 melanoma) was > 100000 nM, the GI50 (A498 renal) was 198 nM and the TGI (A498 renal) was 658 nM. For the same compound, the TGI (MALME-3M melanoma) was > 100000 nM, the TGI (HOP-92 NSCLC) was > 100000 nM and the GI50 (UACC-257 melanoma) was 21600 nM. For the same compound, the TGI (UACC-257 melanoma) was > 100000 nM, the GI50 (M14 melanoma) was 602 nM and the TGI (M14 melanoma) was > 100000 nM. The GI50 (HS 578T breast) was 442 nM, the TGI (HS 578T breast) was > 100000 nM and the GI50 (MOLT-4 leukemia) was 6410 nM. For the same compound, the TGI (MOLT-4 leukemia) was 76200 nM, the GI50 (SF-295 CNS) was 358 nM and the TGI (SF-295 CNS) was > 100000 nM. For the same compound, the GI50 (MCF7 breast) was 352 nM, the TGI (MCF7 breast) was > 100000 nM and the GI50 (MDA-MB-231 breast) was 1650 nM. The TGI (MDA-MB-231 breast) was > 100000 nM, the GI50 (HT29 colon) was 399 nM and the TGI (HT29 colon) was 11200 nM. For the same compound, the GI50 (NCI-H460 lung) was 399 nM, the TGI (NCI-H460 lung) was > 43500 nM and the GI50 (OVCAR-8 ovarian) was 3450 nM. The TGI (OVCAR-8 ovarian) was > 100000 nM, the GI50 (SK-MEL-28 melanoma) was 1860 nM and the TGI (SK-MEL-28 melanoma) was > 100000 nM. The GI50 (KM12 colon) was 486 nM, the TGI (KM12 colon) was > 100000 nM and the GI50 (SR leukemia) was 499 nM. For the same compound, the TGI (SR leukemia) was 26800 nM, the GI50 (NCI-H522 lung) was 276 nM and the TGI (NCI-H522 lung) was 4880 nM. The GI50 (NCI/ADR-RES ovarian) was 784 nM, the TGI (NCI/ADR-RES ovarian) was > 100000 nM and the GI50 (IGROV1 ovarian) was 2200 nM. The TGI (IGROV1 ovarian) was > 100000 nM, the GI50 (HCC-2998 colon) was 1960 nM and the TGI (HCC-2998 colon) was > 100000 nM. For the same compound, the GI50 (T-47D breast) was 533 nM, the TGI (T-47D breast) was > 73200 nM and the GI50 (OVCAR-3 ovarian) was 345 nM. For the same compound, the TGI (OVCAR-3 ovarian) was 1600 nM, the GI50 (PC-3 prostate) was 607 nM and the TGI (PC-3 prostate) was > 100000 nM. The GI50 (LOX IMVI melanoma) was 837 nM, the TGI (LOX IMVI melanoma) was > 100000 nM and the GI50 (OVCAR-5 ovarian) was 3160 nM. The TGI (OVCAR-5 ovarian) was > 100000 nM, the GI50 (OVCAR-4 ovarian) was 1130 nM and the TGI (OVCAR-4 ovarian) was > 100000 nM. The GI50 (SW-620 colon) was 417 nM, the TGI (SW-620 colon) was > 100000 nM and the GI50 (ACHN renal) was 1420 nM. For the same compound, the TGI (ACHN renal) was > 100000 nM, the GI50 (A549 NSCLC) was 704 nM and the TGI (A549 NSCLC) was > 100000 nM. For the same compound, the GI50 (SNB-19 CNS) was 652 nM, the TGI (SNB-19 CNS) was > 100000 nM and the GI50 (CCRF-CEM leukemia) was 377 nM. The TGI (CCRF-CEM leukemia) was 97000 nM, the GI50 (SNB-75 CNS) was 313 nM and the TGI (SNB-75 CNS) was > 100000 nM. The GI50 (TK-10 renal) was > 70000 nM, the TGI (TK-10 renal) was > 100000 nM and the GI50 (DU-145 prostate) was 673 nM. The TGI (DU-145 prostate) was > 100000 nM, the GI50 (UO-31 renal) was 1810 nM and the TGI (UO-31 renal) was > 100000 nM. For the same compound, the GI50 (K-562 leukemia) was 468 nM, the TGI (K-562 leukemia) was 35000 nM and the GI50 (786-0 renal) was 699 nM. For the same compound, the TGI (786-0 renal) was > 100000 nM, the GI50 (HCT-15 colon) was 556 nM and the TGI (HCT-15 colon) was > 100000 nM. For the same compound, the GI50 (NCI-H23 lung) was 1410 nM, the TGI (NCI-H23 lung) was > 100000 nM and the GI50 (SK-MEL-5 melanoma) was 418 nM. For the same compound, the TGI (SK-MEL-5 melanoma) was 21600 nM, the GI50 (HOP-62 NSCLC) was 733 nM and the TGI (HOP-62 NSCLC) was > 100000 nM. For the same compound, the GI50 (HCT-116 colon) was 546 nM and the TGI (HCT-116 colon) was > 100000 nM.
